The source of these data is patent US10023570B2 (Array BioPharma, Inc., priority 2015, dated 2018).

Usually IC50 stands for the concentration needed to halve the response being measured. A high value points to weaker potency.

Structures are written as SMILES.

Chain of human KDR protein in HEK-293 cells (P35968 20-1356): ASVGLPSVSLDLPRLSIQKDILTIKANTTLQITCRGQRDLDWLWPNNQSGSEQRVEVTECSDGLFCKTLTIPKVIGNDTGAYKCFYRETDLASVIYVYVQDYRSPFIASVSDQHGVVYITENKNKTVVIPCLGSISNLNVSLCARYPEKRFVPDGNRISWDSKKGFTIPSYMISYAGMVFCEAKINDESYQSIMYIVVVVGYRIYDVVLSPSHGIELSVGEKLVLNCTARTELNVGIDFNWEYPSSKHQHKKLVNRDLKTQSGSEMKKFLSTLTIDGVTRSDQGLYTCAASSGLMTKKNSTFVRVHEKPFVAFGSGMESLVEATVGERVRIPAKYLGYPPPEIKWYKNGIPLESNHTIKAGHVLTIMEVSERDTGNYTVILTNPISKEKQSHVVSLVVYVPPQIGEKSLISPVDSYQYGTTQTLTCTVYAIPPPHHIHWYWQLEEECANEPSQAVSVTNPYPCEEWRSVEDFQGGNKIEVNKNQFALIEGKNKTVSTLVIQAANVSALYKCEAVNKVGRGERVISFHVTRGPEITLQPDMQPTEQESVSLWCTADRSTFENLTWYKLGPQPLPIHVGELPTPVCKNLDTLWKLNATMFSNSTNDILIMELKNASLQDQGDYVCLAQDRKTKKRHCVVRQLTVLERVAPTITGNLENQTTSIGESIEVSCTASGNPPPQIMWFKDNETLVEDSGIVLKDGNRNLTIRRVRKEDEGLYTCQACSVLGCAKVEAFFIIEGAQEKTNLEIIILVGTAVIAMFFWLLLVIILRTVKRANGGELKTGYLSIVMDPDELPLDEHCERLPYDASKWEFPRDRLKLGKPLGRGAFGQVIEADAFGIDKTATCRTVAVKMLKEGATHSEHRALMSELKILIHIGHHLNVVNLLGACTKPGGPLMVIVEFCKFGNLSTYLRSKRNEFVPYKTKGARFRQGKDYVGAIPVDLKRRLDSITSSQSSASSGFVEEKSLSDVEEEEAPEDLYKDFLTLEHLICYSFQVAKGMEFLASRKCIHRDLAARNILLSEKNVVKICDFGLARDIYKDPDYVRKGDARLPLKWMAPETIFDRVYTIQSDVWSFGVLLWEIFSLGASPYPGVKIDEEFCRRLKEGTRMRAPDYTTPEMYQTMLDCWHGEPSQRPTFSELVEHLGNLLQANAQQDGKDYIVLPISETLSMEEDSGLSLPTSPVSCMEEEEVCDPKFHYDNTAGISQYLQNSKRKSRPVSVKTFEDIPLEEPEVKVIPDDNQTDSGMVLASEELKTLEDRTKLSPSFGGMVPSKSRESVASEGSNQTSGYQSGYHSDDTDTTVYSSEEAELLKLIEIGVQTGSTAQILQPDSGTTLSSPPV

The target of the first assay is human KDR protein in HEK-293 cells (Homo sapiens (Human), UniProt P35968). As to the kind of experiment: KDR Cell Assay (phospho-KDR in HEK-293 cells expressing inducible KDR). The class given is cell-based. Particulars: pKDR Cell HEK 10% FBS IC50, HEK-293 cells expressing inducible KDR, VEGF stimulated. The essentials:
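HEK-293 cells with inducible human KDR were treated with compound for 1 h in DMEM (0.25% DMSO final), then lysed. Phospho-KDR was quantified by Meso Scale immunoassay, expressed as percent of control, and IC50 taken where a 4-parameter logistic fit crossed 50 POC.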
In turn, `COc1ccc(CN2CCN(c3ccc(-c4cc(-c5cnn(C)c5)cn5ncc(C#N)c45)cn3)CC2)cc1` [Example 432, 4-(6-(4-(4-methoxybenzyl)piperazin-1-yl)pyridin-3-yl)-6-(1-methyl-1H-pyrazol-4-yl)pyrazolo[1,5-a]pyridine-3-carbonitrile] registered an IC50 of 0.263 µM. On the same count and under the same terms, with `CN(C(=O)N1CCN(c2ccc(-c3cc(-c4cnn(C)c4)cn4ncc(C#N)c34)cn2)CC1)C1CC1` [Example 386, 4-(5-(3-cyano-6-(1-methyl-1H-pyrazol-4-yl)pyrazolo[1,5-a]pyridine-4-yl)pyridin-2-yl)-N-cyclopropyl-N-methylpiperazine-1-carboxamide 2,2,2-trifluoroacetate] the figure was 1.41 µM; with `Cn1cc(-c2cc(-c3ccc(N4CCN(Cc5ncccn5)CC4)nc3)c3c(C#N)cnn3c2)cn1` [Example 472, 6-(1-methyl-1H-pyrazol-4-yl)-4-(6-(4-(pyrimidin-2-ylmethyl)piperazin-1-yl)pyridin-3-yl)pyrazolo[1,5-a]pyridine-3-carbonitrile], 1.77 µM; with `Cn1cc(-c2cc(-c3ccc(N4CC5(CCOC5)C4)nc3)c3c(C#N)cnn3c2)cn1` [Example 528, 4-(6-(6-oxa-2-azaspiro[3.4]octan-2-yl)pyridin-3-yl)-6-(1-methyl-1H-pyrazol-4-yl)pyrazolo[1,5-a]pyridine-3-carbonitrile 2,2,2-trifluoroacetate], 1.67 µM. In the case of `Cn1cc(-c2cc(-c3ccc(N4C5CC4CN(Cc4ccccc4)C5)nc3)c3c(C#N)cnn3c2)cn1` [Example 490, 4-(6-(3-benzyl-3,6-diazabicyclo[3.1.1]heptan-6-yl)pyridin-3-yl)-6-(1-methyl-1H-pyrazol-4-yl)pyrazolo[1,5-a]pyridine-3-carbonitrile], half-maximal inhibition (IC50) required 0.619 µM. Same read-out and setting: with `Cc1cnc(CN2CCN(c3ccc(-c4cc(-c5cnn(C)c5)cn5ncc(C#N)c45)cn3)CC2)cn1` [Example 444, 6-(1-methyl-1H-pyrazol-4-yl)-4-(6-(4-((5-methylpyrazin-2-yl)methyl)piperazin-1-yl)pyridin-3-yl)pyrazolo[1,5-a]pyridine-3-carbonitrile] the figure was 1.29 µM; with `Cn1cc(-c2cc(-c3ccc(N4CCN(Cc5cc(F)cc(F)c5)CC4)nc3)c3c(C#N)cnn3c2)cn1` [Example 447, 4-(6-(4-(3,5-difluorobenzyl)piperazin-1-yl)pyridin-3-yl)-6-(1-methyl-1H-pyrazol-4-yl)pyrazolo[1,5-a]pyridine-3-carbonitrile], 0.668 µM; with `Cc1nn(C)cc1CN1CCN(c2ccc(-c3cc(-c4cnn(C)c4)cn4ncc(C#N)c34)cn2)CC1` [Example 440, 4-(6-(4-((1,3-dimethyl-1H-pyrazol-4-yl)methyl)piperazin-1-yl)pyridine-3-yl)-6-(1-methyl-1H-pyrazol-4-yl)pyrazolo[1,5-a]pyridine-3-carbonitrile], 1.69 µM.

In turn, `Cn1cc(-c2cc(-c3ccc(N4CCC5(CCCN5C(=O)OC(C)(C)C)CC4)nc3)c3c(C#N)cnn3c2)cn1` [Example 513, tert-butyl 8-(5-(3-cyano-6-(1-methyl-1H-pyrazol-4-yl)pyrazolo[1,5-a]pyridin-4-yl)pyridin-2-yl)-1,8-diazaspiro[4.5]decane-1-carboxylate] had a half-inhibitory concentration (IC50) of 2.94 µM. The same measure, in the same setting: in the case of `Cn1cc(-c2cc(-c3ccc(N4CCC(C(=O)NOCC5CC5)CC4)nc3)c3c(C#N)cnn3c2)cn1` [Example 563, 1-(5-(3-cyano-6-(1-methyl-1H-pyrazol-4-yl)pyrazolo[1,5-a]pyridin-4-yl)pyridin-2-yl)-N-(cyclopropylmethoxy)piperidine-4-carboxamide] it was 0.195 µM; in that of `CCC(CC)C(=O)N1CC2(CCN(c3ccc(-c4cc(-c5cnn(C)c5)cn5ncc(C#N)c45)cn3)CC2)C1` [Example 496, 4-(6-(2-(2-ethylbutanoyl)-2,7-diazaspiro[3.5]nonan-7-yl)pyridin-3-yl)-6-(1-methyl-1H-pyrazol-4-yl)pyrazolo[1,5-a]pyridine-3-carbonitrile], 2.12 µM; in that of `Cc1cncc(CN2CCN(c3ccc(-c4cc(-c5cnn(C)c5)cn5ncc(C#N)c45)cn3)CC2)n1` [Example 431, 6-(1-methyl-1H-pyrazol-4-yl)-4-(6-(4-((6-methylpyrazin-2-yl)methyl)piperazin-l-yl)pyridin-3-yl)pyrazolo[1,5-a]pyridine-3-carbonitrile], 1.5 µM.

The same assay, now with this note: pKDR Cell HEK 10% FBS IC50, HEK-293 cells expressing inducible KDR, VEGF stimulated, 10% FBS.
Regarding `CC(C)OC(=O)N1CC2(CCN(c3ccc(-c4cc(-c5cnn(C)c5)cn5ncc(C#N)c45)cn3)CC2)C1` [Example 222, isopropyl 7-(5-(3-cyano-6-(1-methyl-1H-pyrazol-4-yl)pyrazolo[1,5-a]pyridin-4-yl)pyridin-2-yl)-2,7-diazaspiro[3.5]nonane-2-carboxylate], the 50% inhibitory concentration (IC50) was 0.257 µM. Take `Cn1cc(-c2cc(-c3ccc(N4CCN(C(=O)N5CCCC(F)C5)CC4)nc3)c3c(C#N)cnn3c2)cn1` (stereo not drawn) [Example 116, 4-(6-(4-(3-fluoropiperidine-1-carbonyl)piperazin-1-yl)pyridin-3-yl)-6-(1-methyl-1H-pyrazol-4-yl)pyrazolo[1,5-a]pyridine-3-carbonitrile]: the IC50 was 2.27 µM. Same read-out and setting: in the case of `Cn1cc(-c2cc(-c3ccc(N4CCN(C(=O)C5(O)CC5)CC4)nc3)c3c(C#N)cnn3c2)cn1` [Example 81, 4-(6-(4-(1-hydroxycyclopropane-1-carbonyl)piperazin-1-yl)pyridin-3-yl)-6-(1-methyl-1H-pyrazol-4-yl)pyrazolo[1,5-a]pyridine-3-carbonitrile] it was 0.762 µM; in that of `CO[C@@H]1CCN(C(=O)N2CCN(c3ccc(-c4cc(-c5cnn(C)c5)cn5ncc(C#N)c45)cn3)CC2)C1` [Example 104, (R)-4-(6-(4-(3-methoxypyrrolidine-1-carbonyl)piperazin-1-yl)pyridin-3-yl)-6-(1-methyl-a]pyridine-3-carbonitrile 1H-pyrazol-4-yl)pyrazolo[1,5-], 0.637 µM.

The compound `CCCc1onc(C)c1C(=O)N1CCN(c2ccc(-c3cc(-c4cnn(C)c4)cn4ncc(C#N)c34)cn2)CC1` [Example 367, 4-yl)-4-(6-(4-(3-methyl-5-6-(1-methyl-1H-pyrazol-propylisoxazole-4-carbonyl)piperazin-1-yl)pyridin-3-yl)pyrazolo[1,5-a]pyridine-3-carbonitrile 2,2,2-trifluoroacetate] registered an IC50 of 0.355 µM. The same measure, in the same setting: in the case of `Cn1cc(-c2cc(-c3ccc(N4CCC(N5CCOC5=O)CC4)nc3)c3c(C#N)cnn3c2)cn1` [Example 191, 6-(1-methyl-1H-pyrazol-4-yl)-4-(6-(4-(2-oxooxazolidin-3-yl)piperidin-1-yl)pyridin-3-yl)pyrazolo[1,5-a]pyridine-3-carbonitrile] it was 0.0218 µM; in that of `Cn1cc(-c2cc(-c3ccc(N4CCN(C(=O)C5(C#N)CC5)CC4)nc3)c3c(C#N)cnn3c2)cn1` [Example 348, 4-(6-(4-(1-cyanocyclopropane-carbonyl)piperazin-1-yl)pyridin-3-yl)-6-(1-methyl-1H-pyrazol-4-yl)pyrazolo[1,5-a]pyridine-3-carbonitrile], 1.41 µM; in that of `Cn1cc(-c2cc(-c3ccc(N4CCN(S(C)(=O)=O)CC4)cc3)c3c(C#N)cnn3c2)cn1` [Example 297, 6-(1-methyl-1H-pyrazol-4-yl)-4-(4-(4-(methylsulfonyl)piperazin-1-yl)phenyl)pyrazolo[1,5-a]pyridine-3-carbonitrile], 0.189 µM. Take `Cn1cc(-c2cc(-c3ccc(N4CCN(C(=O)N5CCC(F)CC5)CC4)nc3)c3c(C#N)cnn3c2)cn1` [Example 114, 4-(6-(4-(4-fluoropiperidine-1-carbonyl)piperazin-1-yl)pyridin-3-yl)-6-(1-methyl-1H-pyrazol-4-yl)pyrazolo[1,5-a]pyridine-3-carbonitrile]: the IC50 was 2.25 µM. In turn, `Cn1cc(-c2cc(-c3ccc(N4CCN(C(=O)Cc5ccccc5)CC4)nc3)c3c(C#N)cnn3c2)cn1` [Example 78, 6-(1-methyl-1H-pyrazol-4-yl)-4-(6-(4-(2-phenylacetyl)piperazin-1-yl)pyridin-3-yl)pyrazolo[1,5-a]pyridine-3-carbonitrile] had a 50% inhibitory concentration (IC50) of 0.0806 µM. Still for that read-out and setting: with `Cn1cc(-c2cc(-c3ccc(N4CCN(C(=O)NC5CCOCC5)CC4)nc3)c3c(C#N)cnn3c2)cn1` [Example 121, 4-(5-(3-cyano-6-(1-methyl-1H-pyrazol-4-yl)pyrazolo[1,5-a]pyridin-4-yl)pyridin-2-yl)-N-(tetrahydro-2H-pyran-4-yl)piperazine-1-carboxamide] the figure was 1.34 µM; with `Cn1cc(-c2cc(-c3ccc(N4CCN(C(=O)Cc5ccccn5)CC4)nc3)c3c(C#N)cnn3c2)cn1` [Example 5, 6-(1-methyl-1H-pyrazol-4-yl)-4-(6-(4-(2-(pyridin-2-yl)acetyl)piperazin-1-yl)pyridin-3-yl)pyrazolo[1,5-a]pyridine-3-carbonitrile], 0.243 µM. The same measure, in the same setting: in the case of `CC(=O)N1CCN(c2ccc(-c3cc(-c4cnn(C)c4)cn4ncc(C#N)c34)cc2)CC1` [Example 295, 4-(4-(4-acetylpiperazin-1-yl)phenyl)-6-(1-methyl-1H-pyrazol-4-yl)pyrazolo[1,5-a]pyridine-3-carbonitrile] it was 0.72 µM. Still for that read-out and setting: with `Cn1cc(-c2cc(-c3ccc(N4CCCC4)nc3)c3c(Cl)cnn3c2)cn1` [Example 339, 3-chloro-6-(1-methyl-1H-pyrazol-4-yl)-4-(6-(pyrrolidin-1-yl)pyridin-3-yl)pyrazolo[1,5-a]pyridine] the figure was 3.7 µM; with `Cn1cc(-c2cc(-c3ccc(N4CCN(C(=O)N5CC6COCC6C5)CC4)nc3)c3c(C#N)cnn3c2)cn1` (stereo not drawn) [Example 123, 4-(6-(4-(hexahydro-1H-furo[3,4-c]pyrrole-5-carbonyl)piperazin-1-yl)pyridin-3-yl)-6-(1-methyl-1H-pyrazol-4-yl)pyrazolo[1,5-a]pyridine-3-carbonitrile], 1.61 µM.
